Results from US20120122860A1, “SOLID FORMS OF SULFONAMIDES AND AMINO ACIDS” (Plexxikon, Inc., priority 2009, published 2012).

Assays:
TEC = biological target: T1, TEC (Homo sapiens, UniProt P42680); test: Kinase activity assay, TEC
T1 sequence (P42680 1-631): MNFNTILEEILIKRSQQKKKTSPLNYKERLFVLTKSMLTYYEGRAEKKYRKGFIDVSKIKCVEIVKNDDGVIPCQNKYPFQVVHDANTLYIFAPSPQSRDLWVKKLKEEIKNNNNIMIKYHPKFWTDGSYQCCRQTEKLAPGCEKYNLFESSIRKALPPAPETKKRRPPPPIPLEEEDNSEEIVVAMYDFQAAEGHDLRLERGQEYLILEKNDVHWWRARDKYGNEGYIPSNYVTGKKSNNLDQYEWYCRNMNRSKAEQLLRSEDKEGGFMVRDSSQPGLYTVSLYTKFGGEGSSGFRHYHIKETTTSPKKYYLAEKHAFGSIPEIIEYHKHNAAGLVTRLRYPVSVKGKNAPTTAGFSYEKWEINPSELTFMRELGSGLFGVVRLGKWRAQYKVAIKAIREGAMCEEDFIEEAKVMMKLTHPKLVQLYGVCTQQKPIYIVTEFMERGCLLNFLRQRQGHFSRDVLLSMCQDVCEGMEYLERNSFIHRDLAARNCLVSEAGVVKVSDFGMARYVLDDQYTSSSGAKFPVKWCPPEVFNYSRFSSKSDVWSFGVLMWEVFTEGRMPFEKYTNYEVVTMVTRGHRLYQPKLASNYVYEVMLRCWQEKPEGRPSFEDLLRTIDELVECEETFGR

Src = Src (Homo sapiens, UniProt P12931); test: Kinase activity assay, Src
Chain of Src (P12931 whole entry): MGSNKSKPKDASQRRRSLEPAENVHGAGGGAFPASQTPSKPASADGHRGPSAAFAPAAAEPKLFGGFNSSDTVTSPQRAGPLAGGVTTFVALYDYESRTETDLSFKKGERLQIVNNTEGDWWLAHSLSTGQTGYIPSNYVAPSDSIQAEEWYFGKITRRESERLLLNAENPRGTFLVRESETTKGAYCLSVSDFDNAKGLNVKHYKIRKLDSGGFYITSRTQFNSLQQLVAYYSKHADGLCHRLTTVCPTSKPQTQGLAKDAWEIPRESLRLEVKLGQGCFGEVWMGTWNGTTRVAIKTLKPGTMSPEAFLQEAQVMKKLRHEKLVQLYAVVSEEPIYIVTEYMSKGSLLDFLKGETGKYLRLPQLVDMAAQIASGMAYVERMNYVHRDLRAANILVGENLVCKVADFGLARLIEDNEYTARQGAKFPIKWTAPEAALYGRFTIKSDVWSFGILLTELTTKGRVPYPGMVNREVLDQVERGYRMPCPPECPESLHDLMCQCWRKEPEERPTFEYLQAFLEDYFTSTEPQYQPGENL

Kdr = Kdr (Homo sapiens, UniProt P35968); test: Kinase activity assay, Kdr
Chain of Kdr (P35968 20-1356): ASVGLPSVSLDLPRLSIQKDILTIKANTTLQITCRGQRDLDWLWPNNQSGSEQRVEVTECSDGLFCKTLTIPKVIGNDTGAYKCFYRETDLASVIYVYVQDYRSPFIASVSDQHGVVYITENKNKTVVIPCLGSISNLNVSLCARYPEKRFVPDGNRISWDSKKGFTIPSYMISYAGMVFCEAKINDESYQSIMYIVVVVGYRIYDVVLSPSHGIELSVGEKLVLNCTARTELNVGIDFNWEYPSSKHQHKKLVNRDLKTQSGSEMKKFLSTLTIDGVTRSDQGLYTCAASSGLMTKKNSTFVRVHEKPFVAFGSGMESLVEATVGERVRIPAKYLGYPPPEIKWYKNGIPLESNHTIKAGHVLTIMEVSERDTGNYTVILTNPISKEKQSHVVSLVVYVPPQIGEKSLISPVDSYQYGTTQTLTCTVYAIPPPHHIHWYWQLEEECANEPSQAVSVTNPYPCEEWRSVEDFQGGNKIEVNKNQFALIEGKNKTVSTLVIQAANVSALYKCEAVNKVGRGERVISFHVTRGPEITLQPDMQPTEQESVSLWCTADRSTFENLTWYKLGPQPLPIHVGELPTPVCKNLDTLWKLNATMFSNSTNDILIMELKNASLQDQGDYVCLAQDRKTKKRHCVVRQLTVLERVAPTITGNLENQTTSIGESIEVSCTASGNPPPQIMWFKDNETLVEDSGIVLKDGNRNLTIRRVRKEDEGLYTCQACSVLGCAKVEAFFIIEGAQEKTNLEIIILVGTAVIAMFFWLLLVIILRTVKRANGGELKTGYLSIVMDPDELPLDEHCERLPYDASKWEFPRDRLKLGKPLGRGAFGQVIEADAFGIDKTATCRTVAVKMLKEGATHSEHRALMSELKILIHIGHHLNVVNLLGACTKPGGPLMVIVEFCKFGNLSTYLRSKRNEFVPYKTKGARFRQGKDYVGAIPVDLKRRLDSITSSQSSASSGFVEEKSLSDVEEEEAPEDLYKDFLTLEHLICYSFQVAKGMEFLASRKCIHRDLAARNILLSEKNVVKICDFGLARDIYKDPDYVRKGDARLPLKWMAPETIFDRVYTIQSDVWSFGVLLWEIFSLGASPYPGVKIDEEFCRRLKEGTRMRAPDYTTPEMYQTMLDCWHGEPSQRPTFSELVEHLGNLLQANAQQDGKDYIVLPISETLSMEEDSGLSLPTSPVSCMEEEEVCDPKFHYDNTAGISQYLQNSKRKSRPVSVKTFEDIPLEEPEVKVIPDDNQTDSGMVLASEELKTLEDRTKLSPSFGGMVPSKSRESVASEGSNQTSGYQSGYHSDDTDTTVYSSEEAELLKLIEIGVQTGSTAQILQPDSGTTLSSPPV

Kit = Kit (Homo sapiens, UniProt P10721); test: Kinase activity assay, Kit
Chain of Kit (P10721 26-976): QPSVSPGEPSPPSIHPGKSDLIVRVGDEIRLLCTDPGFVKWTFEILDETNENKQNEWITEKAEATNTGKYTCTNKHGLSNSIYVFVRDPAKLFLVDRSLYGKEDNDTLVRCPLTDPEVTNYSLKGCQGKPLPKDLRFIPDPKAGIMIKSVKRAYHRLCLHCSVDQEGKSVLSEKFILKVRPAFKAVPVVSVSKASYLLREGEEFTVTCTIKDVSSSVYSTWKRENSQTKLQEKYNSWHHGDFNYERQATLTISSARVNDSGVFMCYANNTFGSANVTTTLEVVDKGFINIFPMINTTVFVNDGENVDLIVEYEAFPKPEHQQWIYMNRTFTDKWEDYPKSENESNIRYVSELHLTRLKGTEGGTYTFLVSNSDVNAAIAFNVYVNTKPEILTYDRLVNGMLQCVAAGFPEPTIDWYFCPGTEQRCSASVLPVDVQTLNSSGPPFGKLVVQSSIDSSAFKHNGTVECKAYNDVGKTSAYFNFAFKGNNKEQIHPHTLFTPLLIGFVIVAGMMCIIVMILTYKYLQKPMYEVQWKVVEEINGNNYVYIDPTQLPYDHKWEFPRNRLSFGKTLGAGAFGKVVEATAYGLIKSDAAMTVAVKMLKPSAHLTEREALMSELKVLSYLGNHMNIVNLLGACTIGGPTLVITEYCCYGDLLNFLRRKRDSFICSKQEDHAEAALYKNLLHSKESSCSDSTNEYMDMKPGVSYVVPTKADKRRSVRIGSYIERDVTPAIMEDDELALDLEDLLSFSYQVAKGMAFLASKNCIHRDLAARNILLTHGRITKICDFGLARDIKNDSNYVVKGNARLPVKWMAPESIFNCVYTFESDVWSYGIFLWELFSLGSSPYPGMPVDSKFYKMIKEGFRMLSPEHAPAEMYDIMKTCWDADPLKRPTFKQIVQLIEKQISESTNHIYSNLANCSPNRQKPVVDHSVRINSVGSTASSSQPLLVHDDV

B-Raf V600E = B-Raf V600E (Homo sapiens, UniProt P15056, V600E); test: Kinase activity assay, B-Raf V600E; assay type: biochemical; conditions: read-out: activity toward kinase B-Raf V600E, IC50
Chain of B-Raf V600E (P15056 whole entry V600E): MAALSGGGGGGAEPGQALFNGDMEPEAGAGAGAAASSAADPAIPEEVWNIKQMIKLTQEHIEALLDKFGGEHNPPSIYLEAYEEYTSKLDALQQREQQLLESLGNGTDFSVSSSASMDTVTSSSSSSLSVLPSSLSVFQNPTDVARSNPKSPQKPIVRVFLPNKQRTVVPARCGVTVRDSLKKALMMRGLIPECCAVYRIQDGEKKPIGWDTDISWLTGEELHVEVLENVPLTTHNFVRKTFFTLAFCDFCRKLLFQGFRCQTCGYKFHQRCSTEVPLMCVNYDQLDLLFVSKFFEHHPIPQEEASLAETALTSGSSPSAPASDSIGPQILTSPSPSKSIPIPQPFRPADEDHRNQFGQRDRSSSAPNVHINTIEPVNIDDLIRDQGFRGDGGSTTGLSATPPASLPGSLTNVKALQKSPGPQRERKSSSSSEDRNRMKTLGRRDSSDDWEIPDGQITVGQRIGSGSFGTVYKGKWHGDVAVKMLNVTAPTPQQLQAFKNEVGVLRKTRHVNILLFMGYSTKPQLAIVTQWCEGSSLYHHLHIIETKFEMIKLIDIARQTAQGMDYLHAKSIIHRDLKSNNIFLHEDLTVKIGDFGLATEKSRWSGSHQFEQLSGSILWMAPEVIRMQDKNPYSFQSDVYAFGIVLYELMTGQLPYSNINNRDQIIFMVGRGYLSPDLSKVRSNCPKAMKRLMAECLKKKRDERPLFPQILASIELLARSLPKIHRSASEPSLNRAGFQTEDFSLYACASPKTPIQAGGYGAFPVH

A-Raf = biological target: T2, A-Raf (Homo sapiens, UniProt P10398); test: Kinase activity assay, A-Raf
T2 sequence (P10398 1-606): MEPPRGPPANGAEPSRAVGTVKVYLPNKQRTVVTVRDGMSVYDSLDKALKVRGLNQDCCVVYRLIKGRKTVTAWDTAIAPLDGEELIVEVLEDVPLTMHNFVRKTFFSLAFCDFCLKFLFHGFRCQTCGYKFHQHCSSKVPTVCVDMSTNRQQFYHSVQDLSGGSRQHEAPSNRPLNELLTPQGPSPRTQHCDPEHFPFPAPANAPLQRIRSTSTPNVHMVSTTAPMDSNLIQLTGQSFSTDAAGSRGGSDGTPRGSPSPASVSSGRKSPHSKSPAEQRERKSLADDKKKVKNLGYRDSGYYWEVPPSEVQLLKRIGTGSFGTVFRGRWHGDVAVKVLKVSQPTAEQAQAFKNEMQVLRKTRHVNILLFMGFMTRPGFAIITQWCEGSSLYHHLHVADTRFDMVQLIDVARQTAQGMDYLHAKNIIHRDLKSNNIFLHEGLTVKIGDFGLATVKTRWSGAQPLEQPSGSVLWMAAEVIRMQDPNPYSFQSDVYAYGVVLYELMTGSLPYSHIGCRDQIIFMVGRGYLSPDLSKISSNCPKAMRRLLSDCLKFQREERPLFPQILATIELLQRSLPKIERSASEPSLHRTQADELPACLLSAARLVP

C-Raf = C-Raf (Homo sapiens, UniProt P04049); test: Kinase activity assay, C-Raf
Chain of C-Raf (P04049 whole entry): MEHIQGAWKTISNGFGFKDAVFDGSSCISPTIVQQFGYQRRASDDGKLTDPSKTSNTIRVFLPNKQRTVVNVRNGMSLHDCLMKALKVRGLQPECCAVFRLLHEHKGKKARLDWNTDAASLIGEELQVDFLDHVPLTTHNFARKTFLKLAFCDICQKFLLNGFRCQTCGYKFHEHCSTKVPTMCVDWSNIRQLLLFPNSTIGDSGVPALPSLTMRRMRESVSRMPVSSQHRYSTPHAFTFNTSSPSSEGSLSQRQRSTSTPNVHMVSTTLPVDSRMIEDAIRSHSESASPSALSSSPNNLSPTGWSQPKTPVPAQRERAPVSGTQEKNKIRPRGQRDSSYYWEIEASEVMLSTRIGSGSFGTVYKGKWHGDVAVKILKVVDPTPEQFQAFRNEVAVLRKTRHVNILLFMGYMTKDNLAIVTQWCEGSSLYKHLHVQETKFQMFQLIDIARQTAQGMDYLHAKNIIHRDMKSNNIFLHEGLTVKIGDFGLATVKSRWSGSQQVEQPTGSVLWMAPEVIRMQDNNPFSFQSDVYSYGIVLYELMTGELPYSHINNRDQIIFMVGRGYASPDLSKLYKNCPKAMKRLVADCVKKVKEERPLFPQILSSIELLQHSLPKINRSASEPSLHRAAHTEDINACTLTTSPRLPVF

B-Raf = B-Raf (Homo sapiens, UniProt P15056); test: Kinase activity assay, B-Raf; assay type: biochemical; conditions: read-out: activity toward kinase B-Raf, IC50
Chain of B-Raf (P15056 whole entry): as the sequence (P15056 whole entry V600E) above, with E600V counted along it

MAP4K4 = MAP4K4 (Homo sapiens, UniProt O95819); test: Kinase activity assay, MAP4K4

IC50 (TEC) [µM] | IC50 (Src) [µM] | IC50 (Kdr) [µM] | IC50 (Kit) [µM] | IC50 (B-Raf V600E) [µM] | IC50 (A-Raf) [µM] | IC50 (C-Raf) [µM] | IC50 (B-Raf) [µM] | IC50 (MAP4K4) [µM] | Structure (SMILES)
≤ 10 | ≤ 10 | ≤ 10 | ≤ 10 | ≤ 10 | ≤ 10 | ≤ 10 | ≤ 10 | – | N#Cc1ccnc2[nH]cc(C(=O)c3c(F)ccc(NS(=O)(=O)c4ccccc4F)c3F)c12 [P-2020, N-[3-(4-Cyano-1H-pyrrolo[2,3-b]pyridine-3-carbonyl)-2,4-difluoro-phenyl]-2-fluoro-benzenesulfonamide]
≤ 10 | ≤ 10 | – | ≤ 10 | ≤ 10 | ≤ 10 | ≤ 10 | ≤ 10 | – | N#Cc1cnc2[nH]cc(C(=O)c3c(F)ccc(NS(=O)(=O)c4ccccc4)c3F)c2c1 [P-2046, N-[3-(5-Cyano-1H-pyrrolo[2,3-b]pyridine-3-carbonyl)-2,4-difluoro-phenyl]-benzenesulfonamide]
≤ 10 | ≤ 10 | – | ≤ 10 | ≤ 10 | ≤ 10 | ≤ 10 | ≤ 10 | – | COc1ccnc2[nH]cc(C(=O)c3c(F)ccc(NS(=O)(=O)c4ccc(C(F)(F)F)cc4)c3F)c12 [P-2047, N-[2,4-Difluoro-3-(4-methoxy-1H-pyrrolo[2,3-b]pyridine-3-carbonyl)-phenyl]-4-trifluoromethyl-benzenesulfonamide]
≤ 10 | ≤ 10 | ≤ 10 | – | ≤ 10 | ≤ 10 | ≤ 10 | ≤ 10 | ≤ 10 | O=C(c1c(F)ccc(NS(=O)(=O)c2ccccn2)c1F)c1c[nH]c2ncc(Cl)cc12 [P-2067, Pyridine-2-sulfonic acid [3-(5-chloro-1H-pyrrolo[2,3-b]pyridine-3-carbonyl)-2,4-difluoro-phenyl]-amide]
≤ 10 | – | ≤ 10 | – | ≤ 10 | ≤ 10 | ≤ 10 | ≤ 10 | ≤ 10 | CCCS(=O)(=O)Nc1ccc(F)c(C(=O)c2c[nH]c3ncc(CCCN4CCOCC4)cc23)c1F [P-2247, Propane-1-sulfonic acid {2,4-difluoro-3-[5-(3-morpholin-4-yl-propyl)-1H-pyrrolo[2,3-b]pyridine-3-carbonyl]-phenyl}-amide]
≤ 10 | ≤ 10 | ≤ 10 | – | ≤ 10 | ≤ 10 | ≤ 10 | ≤ 10 | – | C#Cc1ccnc2[nH]cc(C(=O)c3c(F)ccc(NS(=O)(=O)CCC)c3F)c12 [P-2261, Propane-1-sulfonic acid [3-(4-ethynyl-1H-pyrrolo[2,3-b]pyridine-3-carbonyl)-2,4-difluoro-phenyl]-amide]
≤ 10 | – | ≤ 10 | – | ≤ 10 | ≤ 10 | ≤ 10 | ≤ 10 | ≤ 10 | Cc1cnc2[nH]cc(C(=O)c3c(F)ccc(NS(=O)(=O)C(C)C)c3F)c2c1 [P-2278, Propane-2-sulfonic acid [2,4-difluoro-3-(5-methyl-1H-pyrrolo[2,3-b]pyridine-3-carbonyl)-phenyl]-amide]
≤ 10 | – | ≤ 10 | ≤ 10 | ≤ 10 | ≤ 10 | ≤ 10 | ≤ 10 | ≤ 10 | N#Cc1cnc2[nH]cc(C(=O)c3c(F)ccc(NS(=O)(=O)C4CCC4)c3F)c2c1 [P-2353, Cyclobutanesulfonic acid [3-(5-cyano-1H-pyrrolo[2,3-b]pyridine-3-carbonyl)-2,4-difluoro-phenyl]-amide]
≤ 10 | ≤ 10 | ≤ 10 | ≤ 10 | ≤ 10 | ≤ 10 | ≤ 10 | ≤ 10 | ≤ 10 | O=C(c1c(F)ccc(NS(=O)(=O)C2CCC2)c1F)c1c[nH]c2ncc(Cl)cc12 [P-2354, Cyclobutanesulfonic acid [3-(5-chloro-1H-pyrrolo[2,3-b]pyridine-3-carbonyl)-2,4-difluoro-phenyl]-amide]
